Measurements taken from the supplement of paper PMC10307832.

Experiments:
Experiment in all cases: relative viability (nuclei count vs DMSO), 5 days (fraction); higher = more cells survive
CUDC-101 + Dasatinib = compound: C#Cc1cccc(Nc2ncnc3cc(OC)c(OCCCCCCC(=O)NO)cc23)c1 [CUDC-101] + Cc1nc(Nc2ncc(C(=O)Nc3c(C)cccc3Cl)s2)cc(N2CCN(CCO)CC2)n1 [Dasatinib] (partner 0.075 µM)
In short: (§1)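 Lung cancer cell lines were seeded in 1536-well plates and dosed by pin tool the next day, with either a single drug or a fixed anchor-drug dose combined with five library-drug doses (not always all listed) spaced in √10 steps. Five days later, one step fixed the cells and stained their nuclei (final 0.05% Triton X-100, 1% formaldehyde, 1 ug/ml Hoechst), and nuclei were counted on 4× images. Relative viability is the nuclei count in treated wells divided by the count in vehicle wells, and each value is the median of duplicate plates.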

Vandetanib + Linsitinib = compound: COc1cc2/c(=N/c3ccc(Br)cc3F)nc[nH]c2cc1OCC1CCN(C)CC1 [Vandetanib] + C[C@]1(O)C[C@@H](c2nc(-c3ccc4ccc(-c5ccccc5)nc4c3)c3c(N)nccn32)C1 [Linsitinib] (partner 1 µM)
In short: as §1

[1] = compound: C1=CC=C2C(=C1)N=C(S2)C(C#N)C3=NC(=NC=C3)NCCC4=CN=CC=C4 + C[C@]1(O)C[C@@H](c2nc(-c3ccc4ccc(-c5ccccc5)nc4c3)c3c(N)nccn32)C1 [Linsitinib] (partner 1 µM)
In short: as §1

NVP-TAE684 + Luminespib = compound: COc1cc(N2CCC(N3CCN(C)CC3)CC2)ccc1Nc1ncc(Cl)c(Nc2ccccc2S(=O)(=O)C(C)C)n1 [NVP-TAE684] + CCNC(=O)c1noc(-c2cc(C(C)C)c(O)cc2O)c1-c1ccc(CN2CCOCC2)cc1 [Luminespib] (partner 0.01 µM)
In short: as §1

Cell Line: UMC-11
- relative viability (CUDC-101 + Dasatinib; first compound 0.01 µM): 0.436
- relative viability (CUDC-101 + Dasatinib; first compound 0.03162 µM): 0.406
- relative viability (CUDC-101 + Dasatinib; first compound 0.1 µM): 0.35
- relative viability (CUDC-101 + Dasatinib; first compound 0.3162 µM): 0.227
- relative viability (CUDC-101 + Dasatinib; first compound 1 µM): 0.0988
- relative viability (Vandetanib + Linsitinib; first compound 0.02 µM): 0.978
- relative viability (Vandetanib + Linsitinib; first compound 0.06325 µM): 0.994
- relative viability (Vandetanib + Linsitinib; first compound 0.2 µM): 0.97
- relative viability (Vandetanib + Linsitinib; first compound 0.6325 µM): 0.885
- relative viability (Vandetanib + Linsitinib; first compound 2 µM): 1
- relative viability ([1]; first compound 0.005 µM): 0.809
- relative viability ([1]; first compound 0.01581 µM): 0.968
- relative viability ([1]; first compound 0.05 µM): 0.967
- relative viability ([1]; first compound 0.1581 µM): 1.1
- relative viability ([1]; first compound 0.5 µM): 0.917
- relative viability (NVP-TAE684 + Luminespib; first compound 0.2 µM): 0.879
- relative viability (NVP-TAE684 + Luminespib; first compound 0.6325 µM): 0.946
- relative viability (NVP-TAE684 + Luminespib; first compound 2 µM): 0.297
